Consider eight compounds from patent US4119710A, “Bronchospasmolytic 1-(p-amino-phenyl)-2-amino-ethanols-(1) and salts” (Boehringer Ingelheim GmbH, priority 1972, dated 1978).

Data set [1] concerns the target T1, β2 -receptors (Cavia porcellus, UniProt Q8K4Z4).
T1 construct: tested on anesthetized guinea pigs; from tissue; host or cells: living anesthetized guinea pig, airways (Konzett-Rossler)
Nature of the data set: β2-mimetic activity: antagonism to acetylcholine bronchospasm in anesthetized guinea pigs (Konzett-Rossler). It is filed as in vivo. The following applies: for ED50: guinea pig, iv, bronchospasm by 20 γ/kg acetylcholine i.v., test compound i.v., graphic extrapolation (Table I); for Duration of activity (β2 -mimetic activity): i.v. (Table I). The protocol: (§1) The compounds of this invention were tested for toxicity and with regard to their action on the β-receptors in warm-blooded animals, such as cats and guinea pigs, by the methods described below, and the following test results were obtained for representative species of the genus, where
The β2 -mimetic activity was tested on anesthetized guinea pigs as antagonism to bronchospasm provoked by intravenous administration of 20 γ of acetylcholine per kg body weight (according to the method of Konzett-Rossler) by intravenous administration of the test compound. From the average percentage decrease of the bronchospasm produced by various doses of the test compound, a median effective dose (ED50) was determined by graphic extrapolation (see Table I).

The target in data set [2] is T2, β1 -receptors (Felis catus, UniProt Q9TST6).
T2 construct: tested on anesthetized cats; from tissue; host or cells: living anesthetized cat, heart (heart rate)
The data set is described as follows: β1-blocking activity: antagonism to tachycardia provoked by N-isopropyl-noradrenalin sulfate in anesthetized cats. It is filed as in vivo. The following applies: cat, iv. The protocol: as §1
The β1 -blocking activity was tested on anesthetized cats as antagonism to tachycardia provoked by a standard dose of 1.0 γ/kg i.v. of N-isopropyl-noradrenalin sulfate. From the average percentage reduction in heart rate acceleration caused by N-isopropyl-noradrenalin sulfate, obtained by various doses of the test compound in question, a median effective dose (ED50) was determined by graphic extrapolation (see Tables II and III).

Data set [3] can be described thus: acute toxicity in mice (LD50, Litchfield and Wilcoxon). The following applies: mouse, in vivo, iv, groups of 10, i.v. The method, then:
as §1
The acute toxicity of the compounds was determined on groups of 10 mice.

Data set [4] deals with T1, β2 -receptors. Nature of the data set: β2-blocking activity: antagonism to broncholytic activity of N-isopropyl-noradrenalin sulfate in anesthetized guinea pigs (Konzett-Rossler). The format is in vivo. Particulars: guinea pig, iv, d(+)-isomers, 5 γ/kg i.v. N-isopropyl-noradrenalin sulfate after 20 γ/kg i.v. acetylcholine (Table III), read-out: Blocking Action on β2 -receptors ED50. The protocol: as §1
The β2 -blocking activity was tested on anesthetized guinea pigs as antagonism to the broncholytic activity which is observed upon administration of 5 γ/kg body weight i.v. of N-isopropyl-noradrenalin sulfate in the test arrangement according to Konzett-Rossler, following the inducement of a bronchospasm caused by a standard dose of 20 γ/kg body weight i.v. of acetylcholine (see Table III).

The mark [5] stands for this setting: tachycardia by 1.0 γ/kg i.v. N-isopropyl-noradrenalin sulfate, graphic extrapolation (Table II), read-out: Blocking action on the β1 -receptors ED50.
Where [6] appears, read: deaths within 14 days (Table II), read-out: LD50.
The mark [7] stands for this setting: d(+)-isomers, tachycardia by 1.0 γ/kg i.v. N-isopropyl-noradrenalin sulfate (Table III), read-out: Blocking Action on β1 -receptors ED50.
The mark [8] stands for this setting: deaths within 14 days, d(+)-isomers (Table III), read-out: acute toxicity LD50 (Table III).

Counter-ions that a name gives are not always drawn. Like-named read-outs stand apart in the source and are kept apart here.

T1 sequence (Q8K4Z4 whole entry): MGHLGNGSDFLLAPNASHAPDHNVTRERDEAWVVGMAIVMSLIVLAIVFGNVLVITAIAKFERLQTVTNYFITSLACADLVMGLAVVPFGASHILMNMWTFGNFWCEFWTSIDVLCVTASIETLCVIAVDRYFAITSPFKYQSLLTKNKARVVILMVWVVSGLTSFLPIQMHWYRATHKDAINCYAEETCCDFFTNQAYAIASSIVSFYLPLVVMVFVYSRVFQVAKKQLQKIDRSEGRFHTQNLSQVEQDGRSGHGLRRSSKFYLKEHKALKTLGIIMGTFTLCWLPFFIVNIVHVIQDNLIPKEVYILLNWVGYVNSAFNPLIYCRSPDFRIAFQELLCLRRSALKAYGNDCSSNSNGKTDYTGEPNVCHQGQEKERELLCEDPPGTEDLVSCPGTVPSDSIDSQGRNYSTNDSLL
T2 sequence (Q9TST6 whole entry): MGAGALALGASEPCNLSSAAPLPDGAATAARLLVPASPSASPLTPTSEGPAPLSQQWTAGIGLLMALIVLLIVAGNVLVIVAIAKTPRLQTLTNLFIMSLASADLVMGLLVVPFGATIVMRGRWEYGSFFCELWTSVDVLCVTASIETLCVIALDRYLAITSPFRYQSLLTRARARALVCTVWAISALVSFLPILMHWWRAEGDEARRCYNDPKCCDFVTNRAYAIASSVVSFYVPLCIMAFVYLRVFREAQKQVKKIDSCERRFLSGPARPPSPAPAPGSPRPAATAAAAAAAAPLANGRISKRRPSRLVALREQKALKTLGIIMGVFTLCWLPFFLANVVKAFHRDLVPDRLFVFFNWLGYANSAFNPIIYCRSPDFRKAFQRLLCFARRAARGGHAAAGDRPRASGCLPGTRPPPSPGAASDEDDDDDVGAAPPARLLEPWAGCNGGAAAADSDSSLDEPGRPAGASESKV

On to `CC(C)(C)NCC(O)c1ccc(N)c(F)c1.Cl` (stereo not drawn) [E, 1-(4'-amino-3'-fluoro-phenyl)-2-tert.butylamino-ethanol hydrochloride], for which the results for the ED50 in data set [1] and in data set [2] (setting [5]) were 0.018 mg/kg and 0.0135 mg/kg, respectively. The “Duration of activity (β2 -mimetic activity)” value (“Duration of activity” for short) in data set [1] was over 80 min. The LD50 at 336 h in data set [3] (setting [6]) was determined as 69.2 mg/kg.
As to `CC(C)(C)NCC(O)c1cc(Cl)c(N)c([N+](=O)[O-])c1` (stereo not drawn) [Z, 1-(4'-amino-3'-chloro-5'-nitro-phenyl)-2-tert.butylamino-ethanol], in data set [1], the ED50 is 0.0315 mg/kg and the “Duration of activity” value is over 80 min. Moreover, the ED50 in data set [2] (setting [5]) was 0.0045 mg/kg. Besides, the LD50 at 336 h in data set [3] (setting [6]) came out at 42.4 mg/kg.
For the compound `CC(C)(C)NCC(O)c1ccc(N)c(F)c1` (single isomer, unassigned) [E-d(+), d-1-(4'-amino-3'-fluoro-phenyl)-2-tert.butylamino-ethanol hydrochloride], the ED50 in data set [2] (setting [7]) is 0.0015 mg/kg; in data set [4], over 2 mg/kg.
As for `CC(C)(C)NCC(O)c1cc(F)c(N)c(Cl)c1` (single isomer, unassigned) [D-d(+), d-1-(4'-Amino-3'-chloro-5'-fluoro-phenyl)-2-tert.butylamino-ethanol], the ED50 in data set [2] (setting [7]) is 0.0062 mg/kg; in data set [4], over 2 mg/kg. For the same compound, the LD50 at 336 h in data set [3] (setting [8]) is 34.2 mg/kg.
Turning to `CC(C)(C)NCC(O)c1cc(F)c(N)c(Br)c1` (single isomer, unassigned) [A-d(+), d-1-(4'-amino-3'-bromo-5'-fluoro-phenyl)-2-tert.butylamino-ethanol hydrochloride], the median effective dose (ED50) was 0.0084 mg/kg in data set [2] (setting [7]) and over 2 mg/kg in data set [4]. Also, the LD50 at 336 h in data set [3] (setting [8]) is 37.2 mg/kg.
As to `CCC(C)NCC(O)c1cc(Cl)c(N)c(C#N)c1.Cl` (stereo not drawn) [R, 1-(4'-amino-3'-chloro-5'-cyano-phenyl)-2-sec.butylamino-ethanol hydrochloride], in data set [1], the ED50 is 0.0057 mg/kg and the “Duration of activity” value is over 80 min. Moreover, the ED50 in data set [2] (setting [5]) is 0.00032 mg/kg. In addition, the LD50 at 336 h in data set [3] (setting [6]) is 40.4 mg/kg.
`CC(C)(C)NCC(O)c1cc(Cl)c(N)c(C(F)(F)F)c1` (single isomer, unassigned) [G-d(+), d-1-(4'-Amino-3'-chloro-5'-trifluoromethyl-phenyl)-2-tert.butylamino-ethanol]: the values for the ED50 in data set [2] (setting [7]) and in data set [4] were 0.0125 mg/kg and over 2 mg/kg, respectively. Further, the LD50 at 336 h in data set [3] (setting [8]) was 33.2 mg/kg.
On to `CCCNCC(O)c1cc(Cl)c(N)c(C#N)c1.Cl` (stereo not drawn) [Q, 1-(4'-amino-3'-chloro-5'-cyano-phenyl)-2-propylamino-ethanol hydrochloride], for which, in data set [1], the ED50 is 0.027 mg/kg and the “Duration of activity” value was 50 min. Further, the ED50 in data set [2] (setting [5]) was 0.00076 mg/kg. The LD50 at 336 h in data set [3] (setting [6]) is 53.4 mg/kg.

In general, ED50 refers to the midpoint of the dose-response relation. As usually defined, the LD50 is the dose expected to kill half of the subjects tested.
